The text below walks through data of patent publication US10934577B2, “Assays for resistance to echinocandin-class drugs” (priority 2005, dated 2021).

The subject of test [1] is C. albicans strains CAI4 and M70, laboratory-derived isolates with reduced susceptibility. Kind of test: In vitro caspofungin susceptibility testing, liquid microbroth dilution assay in RPMI-1640 (NCCLS M27-A2). The format is cell-based. As to conditions: Candida albicans; all laboratory-derived isolates (35 from CAI4, 50 from M70) selected on 4 μg/ml caspofungin. How it is done:
(§1) Spontaneous mutants of C. albicans strains CAI4 and M70 resistant to caspofungin were isolated by direct selection on solid growth media containing 4 μg/ml (forty times the MIC) caspofungin. The frequency of formation of spontaneous caspofungin-resistant derivatives for both strains was <10^−8 mutants per viable cell. For both strains, the formation of rare shrunken slow-growing colonies on the plates with caspofungin was observed. […] After prolonged incubation for more than 10 days, a small fraction of small shrunken colonies gave rise to smooth fast-growing derivatives which were able to propagate on caspofungin-containing media after reinoculation. Only one such derivative per individual plate/culture was saved and used for further analysis. In total, 35 and 50 isolates with reduced susceptibility to caspofungin were isolated for strains CAI4 and M70, respectively. […] Details of the isolation procedure are set forth in Example 2.
C. albicans strain CAI4 was purchased from ATCC (ATCC, Manassas, Va.). C. albicans strain M70 was from the Merck culture collection (MRL, Rahway, N.J.). Strains were grown on yeast extract-peptone-dextrose (YPD) medium (1% yeast extract, 2% Bacto Peptone, 2% dextrose). For growth of strain CAI4, YPD medium was supplemented by uridine (Sigma-Aldrich, St. Louis, Mo.) at 25 mg/ml. Caspofungin (Merck, Rahway, N.J.) was added directly to YPD at 4 μg/ml. […]
For orientation: Dilution methods test growth across graded concentrations, often in twofold steps.

Test [2] relates to C. albicans strains CAI4 and M70. Kind of test: Isolation of spontaneous caspofungin-resistant mutants by direct selection on solid media containing caspofungin. The note with it: both strains CAI4 and M70; YPD plates with 4 μg/ml caspofungin (forty times the MIC). It counts as cell-based, Candida albicans. As to the method:
as §1
Spontaneous caspofungin-resistant mutants of C. albicans strains CAI4 and M70 were isolated by plating 100 ul (˜10^8 cells) of an 18 h liquid YPD culture on YPD plates containing 4 μg/ml caspofungin. Serial dilutions of the overnight cultures were plated on the YPD plates without antibiotic selection to precisely determine starting colony counts. Selection plates were incubated for 10-14 days at 30° C. […]

Structures are written as SMILES.

One may read the MIC as the lowest concentration that inhibits growth of the organism. For `CC[C@H](C)C[C@H](C)CCCCCCCCC(=O)N[C@H]1C[C@@H](O)[C@@H](NCCN)NC(=O)[C@@H]2[C@@H](O)CCN2C(=O)[C@H]([C@H](O)CCN)NC(=O)[C@H]([C@H](O)[C@@H](O)c2ccc(O)cc2)NC(=O)[C@@H]2C[C@@H](O)CN2C(=O)[C@H]([C@@H](C)O)NC1=O` [caspofungin], the minimum inhibitory concentration (MIC) in test [1] is more than 16 mg/L. Besides, in test [2], the “frequency of formation of spontaneous caspofungin-resistant derivatives” value is < 10^−8 mutants per viable cell.
